Starred links: 1 amine or outer side, 2 acyl side, 3 side chain; linkers in the order of their positions; H or OH if unused. Non-standard residues stand in square brackets, D forms with d. Residues, ends and D or L forms follow the SMILES beside them. *: point of attachment. X3 = O=C(N[C@H]1C[C@@H](C(=O)[*:2])N([*:1])C1)c1ccccc1; Arg(Nω,Nω'-propylene) = N[C@@H](CCCNC1=NCCCN1)C(=O)O; Phe(4-CF3) = N[C@@H](Cc1ccc(C(F)(F)F)cc1)C(=O)O; Ala(pyrazol-1-yl) = N[C@@H](Cn1cccn1)C(=O)O; dPro(cis-4-NH2) = N[C@H]1CN[C@@H](C(=O)O)C1; X4 = Cn1ccnc1CNCCC[C@H](N[*:1])C(=O)[*:2]; 1Nal = N[C@@H](Cc1cccc2ccccc12)C(=O)O; 2Nal = N[C@@H](Cc1ccc2ccccc2c1)C(=O)O; hArg = N=C(N)NCCCC[C@H](N)C(=O)O; Tic = O=C(O)[C@@H]1Cc2ccccc2CN1; d3Pal = N[C@H](Cc1cccnc1)C(=O)O; 2Pyrimidinyl = c1cnc(*)nc1; dOrn = NCCC[C@@H](N)C(=O)O; hSer = N[C@@H](CCO)C(=O)O; Nle = CCCC[C@H](N)C(=O)O; Orn = NCCC[C@H](N)C(=O)O; Dab = NCC[C@H](N)C(=O)O; Abu = CC[C@H](N)C(=O)O
Target: T1, CXCR7 (Homo sapiens, UniProt P25106)
T1 construct: host or cells: CHO (PathHunter CHO-CXCR7 β-arrestin cells)
Experiment: CXCR7 β-arrestin recruitment assay (PathHunter CHO-CXCR7, DiscoverX), agonistic assay
Format: cell-based
Settings: not given
Experimental: Lyophilized peptides were weighed on a Microbalance (Mettler MX5) and dissolved in DMSO to a final concentration of 10 mM unless otherwise stated. Stock solutions were kept at +4° C., and protected from light.
2.2 CXCR7 β-Arrestin Recruitment Assay
The PathHunter CHO-CXCR7 (DiscoverX) assay was performed according to the manufacturer's protocol. In brief, CHO CXCR7 β-arrestin cells were seeded at a density of 5000 cells per well in 40 μl of F12 medium in black 96-half volume well culture plates and incubated overnight at 37° C. in a humidified atmosphere with 5% CO2. The next day, serial dilutions of PEM compounds have been prepared in DMSO and subsequently diluted in HBSS buffer containing 0.1% BSA.
For agonistic assay, 10 μl of compound solution or a solution of stromal cell-derived factor-1 (SDF-1) as positive control was added to the cells with a final DMSO concentration of 1% (v/v). The plate was incubated for 90 min at 37° C. in 5% CO2 incubator with gentle shaking (300 rpm) before addition of 40 μl of detection reagent per well. Reaction was developed for 90 min at room temperature in the dark with shaking, and chemiluminescence was measured with a Topcount (Perkin Elmer) luminescence counter.

T1 sequence (P25106 whole entry): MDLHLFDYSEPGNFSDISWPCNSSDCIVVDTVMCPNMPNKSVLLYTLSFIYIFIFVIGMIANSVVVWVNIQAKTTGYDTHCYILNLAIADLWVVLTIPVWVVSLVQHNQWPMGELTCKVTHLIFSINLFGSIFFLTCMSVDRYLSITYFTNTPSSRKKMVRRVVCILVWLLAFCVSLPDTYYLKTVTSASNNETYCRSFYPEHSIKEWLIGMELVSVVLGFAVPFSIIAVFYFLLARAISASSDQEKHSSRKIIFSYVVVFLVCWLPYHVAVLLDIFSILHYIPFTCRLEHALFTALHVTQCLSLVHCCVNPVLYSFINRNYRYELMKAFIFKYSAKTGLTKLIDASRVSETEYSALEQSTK

Structure (SMILES)	EC50 [nM]
O=C(N[C@H]1C[C@H]2C(=O)N[C@@H](Cc3c[nH]cn3)C(=O)N[C@H](Cc3c[nH]c4ccccc34)C(=O)N[C@@H](Cc3c[nH]cn3)C(=O)N[C@@H](Cc3c[nH]c4ccccc34)C(=O)N3CCC[C@@H]3C(=O)N2C1)c1ccccc1 [Ex. 51, cyclo(-His-^DTrp-His-Trp-^DPro-Pro((4S)NHBz)-)] (cyclo(HW[dP][X3]H[dW]))	413 ± 225

Same assay, conditions: agonistic assay; CHO CXCR7 β-arrestin cells; 90 min at 37° C.; chemiluminescence; read-out: β-Arrestin EC50

Structure (SMILES)	EC50 [nM]
N=C(N)NCCCC[C@@H]1NC(=O)[C@H](Cc2c[nH]c3ccccc23)NC(=O)[C@@H](Cc2ccccc2)NC(=O)[C@H](CCCNC(=N)N)NC(=O)[C@@H]2Cc3ccccc3CN2C(=O)[C@H]2C[C@@H](N)CN2C1=O [compound 39, cyclo(-Arg-^DPhe-Trp-hArg-^DPro((4R)N H2)-Tic-)] (cyclo(R[dF]W[hArg][dPro(cis-4-NH2)][Tic]))	352 ± 79.3
CC[C@H](C)[C@@H]1NC(=O)[C@H]([C@@H](C)O)NC(=O)[C@H]2C[C@@H](N)CN2C(=O)[C@H](Cc2c[nH]c3ccccc23)NC(=O)[C@H](CCCNC(=N)N)NC(=O)[C@@H](CCCNC(=N)N)NC1=O [Ex. 56, cyclo(-Ile-^DArg-Arg-Trp-^DPro((4R)NH2)-Thr-)] (cyclo(I[dR]RW[dPro(cis-4-NH2)]T))	949 ± 75.3
CC[C@H](C)[C@@H]1NC(=O)[C@H]([C@@H](C)O)NC(=O)[C@H]2CCCN2C(=O)[C@H](Cc2c[nH]c3ccccc23)NC(=O)[C@H](CCCNCc2nccn2C)NC(=O)[C@@H](CCCNC(=N)N)NC1=O [Ex. 69, cyclo(-Ile-^DArg-Orn(Ar7)-Trp-^DPro-Thr-)] (cyclo(I[dR][X4]W[dP]T))	337 ± 92.6
CC[C@H](C)[C@@H]1NC(=O)[C@H]([C@@H](C)O)NC(=O)[C@H]2CCCN2C(=O)[C@H](Cc2ccccc2)NC(=O)[C@H](CCCNC(=N)N)NC(=O)[C@@H](CCCNC(=N)N)NC1=O [Ex. 6, cyclo(-Ile-^DArg-Arg-Phe-^DPro-Thr-)] (cyclo(F[dP]TI[dR]R))	46.4 ± 57.9
CC[C@H](C)[C@@H]1NC(=O)[C@H]([C@@H](C)O)NC(=O)[C@H]2CCCN2C(=O)[C@H](Cc2c[nH]c3ccccc23)NC(=O)[C@H](CCCNC(=N)N)NC(=O)[C@@H](CCCN)NC1=O [compound 63, cyclo(-Ile-^DOrn-Arg-Trp-^DPro-Thr-)] (cyclo(I[dOrn]RW[dP]T))	23.3 ± 7.3
CC[C@H](C)[C@@H]1NC(=O)[C@H]([C@@H](C)O)NC(=O)[C@H]2CCCN2C(=O)[C@H](Cc2c[nH]c3ccccc23)NC(=O)[C@H](CCN)NC(=O)[C@@H](CCCNC(=N)N)NC1=O [Ex. 4, cyclo(-Ile-^DArg-Dab-Trp-^DPro-Thr-)] (cyclo([Dab]W[dP]TI[dR]))	87 ± 84.1
N=C(N)NCCC[C@@H]1NC(=O)[C@H](Cc2c[nH]c3ccccc23)NC(=O)[C@@H](Cc2ccccc2)NC(=O)[C@H](Cn2cccn2)NC(=O)[C@@H]2Cc3ccccc3CN2C(=O)[C@H]2C[C@@H](N)CN2C1=O [Ex. 74, cyclo(-Ala(1Pyraz)-^DPhe-Trp-Arg-^DPro((4R)NH2)-Tic-)] (cyclo(R[dPro(cis-4-NH2)][Tic][Ala(pyrazol-1-yl)][dF]W))	29.9 ± 8.9
CC[C@@H]1NC(=O)[C@H]([C@@H](C)O)NC(=O)[C@H]2CCCN2C(=O)[C@H](Cc2c[nH]c3ccccc23)NC(=O)[C@H](CCCNC(=N)N)NC(=O)[C@@H](CCCNC(=N)N)NC1=O [compound 58, cyclo(-Abu-^DArg-Arg-Trp-^DPro-Thr-)] (cyclo([Abu][dR]RW[dP]T))	330 ± 93.2
NCC[C@@H]1NC(=O)[C@H](Cc2c[nH]c3ccccc23)NC(=O)[C@@H](Cc2ccccc2)NC(=O)[C@H](Cc2c[nH]c3ccccc23)NC(=O)[C@@H]2Cc3ccccc3CN2C(=O)[C@H]2C[C@@H](N)CN2C1=O [compound 30, cyclo(-Trp-^DPhe-Trp-Dab-^DPro((4R)NH2)-Tic-)] (cyclo([Dab][dPro(cis-4-NH2)][Tic]W[dF]W))	13.6 ± 5
N=C(N)NCCC[C@@H]1NC(=O)[C@H](Cc2c[nH]c3ccccc23)NC(=O)[C@@H](Cc2ccccc2)NC(=O)[C@H](CCCNc2ncccn2)NC(=O)[C@@H]2Cc3ccccc3CN2C(=O)[C@H]2C[C@@H](N)CN2C1=O [Ex. 76, cyclo(-Orn(Ar2)-^DPhe-Trp-Arg-^DPro((4R)NH2)-Tic-)] (cyclo([Orn](2Pyrimidinyl)[dF]WR[dPro(cis-4-NH2)][Tic]))	209 ± 6.6
N[C@@H]1C[C@@H]2C(=O)N3Cc4ccccc4C[C@H]3C(=O)N[C@@H](Cc3c[nH]c4ccccc34)C(=O)N[C@H](Cc3ccccc3)C(=O)N[C@@H](Cc3c[nH]c4ccccc34)C(=O)N[C@@H](CCCNC3=NCCCN3)C(=O)N2C1 [compound 80, cyclo(-Trp-^DPhe-Trp-Orn(A56)-^DPro((4R)NH2)-Tic-)] (cyclo([Tic]W[dF]W[Arg(Nω,Nω'-propylene)][dPro(cis-4-NH2)]))	33.4 ± 0.8
CC[C@H](C)[C@@H]1NC(=O)[C@H](CCO)NC(=O)[C@H]2CCCN2C(=O)[C@H](Cc2c[nH]c3ccccc23)NC(=O)[C@H](CCCNC(=N)N)NC(=O)[C@@H](CCCNC(=N)N)NC1=O [Ex. 8, cyclo(-Ile-^DArg-Arg-Trp-^DPro-hSer-)] (cyclo(I[dR]RW[dP][hSer]))	347 ± 10.3
CC[C@H](C)[C@@H]1NC(=O)[C@H]([C@@H](C)O)NC(=O)[C@H]2CCCN2C(=O)[C@H](Cc2cccc3ccccc23)NC(=O)[C@H](CCCNC(=N)N)NC(=O)[C@@H](CCCNC(=N)N)NC1=O [compound 16, cyclo(-Ile-^DArg-Arg-1Nal-^DPro-Thr-)] (cyclo([1Nal][dP]TI[dR]R))	17.9 ± 2.6
N=C(N)NCCC[C@@H]1NC(=O)[C@H](Cc2c[nH]c3ccccc23)NC(=O)[C@@H](Cc2ccccc2)NC(=O)[C@H](Cc2ccc(O)cc2)NC(=O)[C@@H]2Cc3ccccc3CN2C(=O)[C@H]2C[C@@H](N)CN2C1=O [compound 28, cyclo(-Tyr-^DPhe-Trp-Arg-^DPro((4R)NH2)-Tic-)] (cyclo(R[dPro(cis-4-NH2)][Tic]Y[dF]W))	20.9 ± 27.3

Second part, the molecule after the results:

EC50 [nM]	Structure (SMILES)
12.2 ± 5.4	N=C(N)NCCCC[C@@H]1NC(=O)[C@@H]2Cc3ccccc3CN2C(=O)[C@H]2C[C@@H](N)CN2C(=O)[C@H](CCCNC(=N)N)NC(=O)[C@H](Cc2c[nH]c3ccccc23)NC(=O)[C@@H](Cc2ccccc2)NC1=O [compound 35, cyclo(-hArg-^DPhe-Trp-Arg-^DPro((4R)NH2)-Tic-)] (cyclo(R[dPro(cis-4-NH2)][Tic][hArg][dF]W))
11 ± 4.5	CC[C@H](C)[C@@H]1NC(=O)[C@H]([C@@H](C)O)NC(=O)[C@H]2CCCN2C(=O)[C@H](Cc2c[nH]c3ccccc23)NC(=O)[C@H](CCCCNC(=N)N)NC(=O)[C@@H](CCCNC(=N)N)NC1=O [compound 66, cyclo(-Ile-^DArg-hArg-Trp-^DPro-Thr-)] (cyclo(I[dR][hArg]W[dP]T))
6.7 ± 5.1	CC[C@H](C)[C@@H]1NC(=O)[C@H]([C@@H](C)O)NC(=O)[C@H]2CCCN2C(=O)[C@H](Cc2c[nH]c3ccccc23)NC(=O)[C@H](CCCNC(=N)N)NC(=O)[C@@H](CCCNC(=N)N)NC1=O [compound 18, cyclo(-Ile-^DArg-Arg-Trp-^DPro-Thr-)] (cyclo(I[dR]RW[dP]T))
6.1 ± 1.5	N=C(N)NCCC[C@@H]1NC(=O)[C@H](Cc2c[nH]c3ccccc23)NC(=O)[C@@H](Cc2cccnc2)NC(=O)[C@H](Cc2c[nH]c3ccccc23)NC(=O)[C@@H]2Cc3ccccc3CN2C(=O)[C@H]2C[C@@H](N)CN2C1=O [compound 38, cyclo(-Trp-^D3Pal-Trp-Arg-^DPro((4R)NH2)-Tic-)] (cyclo(R[dPro(cis-4-NH2)][Tic]W[d3Pal]W))
5.3 ± 3.6	CC(C)C[C@@H]1NC(=O)[C@H]([C@@H](C)O)NC(=O)[C@H]2CCCN2C(=O)[C@H](Cc2c[nH]c3ccccc23)NC(=O)[C@H](CCCNC(=N)N)NC(=O)[C@@H](CCCNC(=N)N)NC1=O [compound 60, cyclo(-Leu-^DArg-Arg-Trp-^DPro-Thr-)] (cyclo(L[dR]RW[dP]T))
4.5 ± 1.1	CC[C@H](C)[C@@H]1NC(=O)[C@H]([C@@H](C)O)NC(=O)[C@H]2CCCN2C(=O)[C@H](Cc2ccc(C(F)(F)F)cc2)NC(=O)[C@H](CCCNC(=N)N)NC(=O)[C@@H](CCCNC(=N)N)NC1=O [Ex. 72, cyclo(-Ile-^DArg-Arg-Phe(4CF3)-^DPro-Thr-)] (cyclo(I[dR]R[Phe(4-CF3)][dP]T))
3.2 ± 2.7	CC[C@H](C)[C@@H]1NC(=O)[C@H]([C@@H](C)O)NC(=O)[C@H]2CCCN2C(=O)[C@H](Cc2c[nH]c3ccccc23)NC(=O)[C@H](CCCNC2=NCCCN2)NC(=O)[C@@H](CCCNC(=N)N)NC1=O [Ex. 71, cyclo(-Ile-^DArg-Orn(A56)-Trp-^DPro-Thr-)] (cyclo(I[dR][Arg(Nω,Nω'-propylene)]W[dP]T))
2.8 ± 1	CCCC[C@@H]1NC(=O)[C@H]([C@@H](C)O)NC(=O)[C@H]2CCCN2C(=O)[C@H](Cc2c[nH]c3ccccc23)NC(=O)[C@H](CCCNC(=N)N)NC(=O)[C@@H](CCCNC(=N)N)NC1=O [compound 61, cyclo(-Nle-^DArg-Arg-Trp-^DPro-Thr-)] (cyclo([Nle][dR]RW[dP]T))
0.4 ± 0.1	CC[C@H](C)[C@@H]1NC(=O)[C@H]([C@@H](C)O)NC(=O)[C@H]2CCCN2C(=O)[C@H](Cc2ccc3ccccc3c2)NC(=O)[C@H](CCCNC(=N)N)NC(=O)[C@@H](CCCNC(=N)N)NC1=O [compound 15, cyclo(-Ile-^DArg-Arg-2Nal-^DPro-Thr-)] (cyclo([2Nal][dP]TI[dR]R))

From patent publication US9637520B2, “Template-fixed peptidomimetics with CXCR7 modulating activity” (POLYPHOR AG, priority 2010, dated 2017)
